# Patent publication US4312883A, “Furocoumarin for the photochemotherapy of psoriasis and related skin diseases” (Consiglio Nazionale delle Ricerche, priority 1979, dated 1982)
# Where a name gives a salt, the structure may show the parent alone. Read-outs that look alike come from different tables or passages of the source.
# Tests used:
# psoriasis = assay: Topical photochemotherapy of psoriasis in patients; assay type: in vivo, human; conditions: topical 0.1% w/v + UV-A; for No. of patients with Excellent result: Excellent = 90% clearance; for No. of patients with Fair result: Fair = 50-70%; for No. of patients with Good result: Good = 70-90%; for No. of patients with Poor result: Poor 40%
# Text: Clinical data: The effectiveness of certain representative alkylangelicins according to the present invention, specifically 5-methylangelicin, 4,5'-dimethylangelicin, 4'-hydroxymethyl-4,5'-dimethylangelicin, 4'-hydroxymethyl-4,5'-dimethylangelicin and 4,5-dimethylangelicin, has been tested by measuring their capacity to resolve psoriasis in various patients. For a direct comparison the efficacy of the parent unsubstituted angelicin and that of three very effective linear furocoumarins, that is 8-methoxypsoralen (8-MOP), 5-methoxypsoralen (5-MOP), and 4,5',8-trimethylpsoralen (TMP) were also tested.
# In each treatment four areas of the affected skin were used;
# (a) In the first area an alcohol lotion, containing 10% glycerine, of the tested compound (0.1% w/v) was applied until a concentration of […] was reached then left to evaporate by the heat of the body. After half an hour the area was irradiated with high intensity UV-A emitting low pressure mercury fluorescent lamps with a wavelength of 320-400 nm. The irradiation doses were selected in the range of 4.5-13 J/cm^2 for each application as a function of the sensitivity of the skin of the patients; when the skin sensitivity was higher, the light doses were lower and vice versa.
# (b) A second area was treated with an alcohol solution of the drug as in (a) but it was covered and maintained in the dark.
# (c) A third area, where the drug was not applied, was irradiated as in (a) but in general with higher UV-A doses.
# (d) A fourth area was not treated at all, neither with the drug, not with UV-A.
# The treatment with the alkylangenlicins referred to above was repeated 5 time a week for two or more weeks; the total number of treatments was between 8 and 20 per subject. In some cases, as for instance with 5-methylangelicin, a good clearing of psoriasis was observed after 8 treatments.
# In order to avoid induction of photosensitization processes such as redness and erythema in the reference tests made with the linear furocoumarins 8-MOP, 5-MOP, TMP, lower light doses were used than in the case of alkylangelicins, the treatments were repeated at a frequency of no more than three times a week.
# melamin pigmentation = conditions: Table I; cited from earlier work
# [1] = cited from earlier work
# DNA [2] = conditions: cited from earlier work; for DNA intercalation property / Interstrand cross-linking induction in DNA / Monoadduct forming property: Table I; for Photobinding capacity to DNA: known furocoumarins
# DNA synthesis = conditions: Table I; cited from earlier work
# [3] = known furocoumarins, Table I; cited from earlier work
# [4] = Table I; cited from earlier work
# DNA [5] = assay: Dark complex formation (intercalation) with DNA in the ground state, binding parameters; parameters: K (association constants) of the complexes with DNA: unit not given here; conditions: for K (association constants) of the complexes with DNA / 1/n (frequency of binding sites): in vitro, ground state; for K (association constants) of the complexes with DNA: McGhee and Von Hippel method; for 1/n (frequency of binding sites): molecules bound per nucleotide; for 1/n (frequency of binding sites), relative / K (association constants), relative: relative (ang = 100)
# Text: Dark complex formation: It is known from F. Dall'Acqua, et al. Chem.-Biol. Interactions 21,103 (1978) that the intercalated complex formed by furocoumarins with DNA strongly affects the successive photoaddition increasing the rate of photobinding. […] These parameters have been determined according to the method of McChee and Von Hippel, J.Mol.Biol, 86, 469 (1974).
# (a) Determined according to Mc Ghee and Von Hippel, J. Mol. Biol.,
# DNA [6] = assay: Photobinding to DNA, rate constants of the photoreactions; assay type: biochemical; conditions: for Rate constants of the photoreactions with DNA: in vitro, UV-A irradiated; for Rate constants of the photoreactions with DNA, relative: relative (ang = 100); for photobinding capacity to DNA (in words): versus angelicin
# Text: (b) Determined according to F. Dall'Acqua, S. Marciani, F. Zambon and G.
# Rodighiero, Photochem. Photobiol., 29,489(1979).
# Photobinding capacity to DNA: The introduction of one or two methyl groups in the molecule of angelicin leads to a strong increase of the photobinding to DNA; see Table II. […] Photobiol., 29, 489 (1979).
# DNA [7] = assay: Capacity to form inter-strand cross-linkages in DNA; assay type: biochemical; conditions: (psr = 100)
# Experimental: All these compounds were not suitable to photoinduce in DNA inter-strand cross-linkages. […] These tests were carried out according to the method of F. Bordin et al., Photochem. Photobiol., 29,1063 (1979).
# [8] = test system: DNA synthesis in Ehrlich ascites tumor cells; assay: Inhibition of DNA synthesis (and DNA and RNA synthesis) on irradiation at 365 nm; assay type: cell-based; conditions: for inhibition of DNA synthesis, relative: relative (ang = 100)
# Text: (§1) Photobiological activity: A significant test for assessing photobiological activity of alkylangelicins is the study of their capacity to inhibit DNA and RNA synthesis in Ehrlich ascites tumor cells. In Table III the capacity of inhibition is expressed as ID50, that is the irradiation does, in terms of quanta at 365 nm, necessary to inhibit in these cells the 50% of the DNA and RNA synthesis in the presence of a constant amount of alkylangelicin. […] Moreover, in general it can be observed that in this simple biological system a close correlation exists between photobiological activity and the capacity to induce photochemical lesions in DNA, that is photoreactivity.
# [9] = test system: RNA synthesis in Ehrlich ascites tumor cells; assay: Inhibition of RNA synthesis on irradiation at 365 nm; assay type: cell-based; conditions: relative (ang = 100)
# Text: as §1
# epidermal DNA synthesis [10] = assay: Inhibition of epidermal DNA synthesis in the mouse in vivo after topical application and UV-A irradiation; conditions: light or radiation study, 0.01% methanol solutions, UV-A 9 J/cm^2, read-out: Percent inhibition ± standard error of epidermal DNA synthesis
# Experimental: DNA samples were dissolved in water and their specific radioactivity determined.
# Each drug substance was studied using at least six mice.
# epidermal DNA synthesis [11] = assay: Inhibition of the synthesis of epidermal DNA of the mouse in vivo after oral administration and UV-A irradiation; conditions: oral 0.25 g/Kg, UV-A 9 J/cm^2 after two hours
# Text: Considering that the topical skin tests carried out on mice to evaluate the effectiveness of these substances has yielded data which correlate well with the clinical data, such a test conveniently modified has been adopted to evaluate the effectiveness of the alkylangelicins after oral administration followed by UV-A irradiation.
# In this connection experiments have been conducted using mice 20±2 g in weight, that were starved for three hours before oral administration of the alkylangelicins. Groups of 5 mice were fed a suspension of 0.5% methylcellulose in water containing the alkylangelicins of the invention at a dosage of 0.25 g/Kg. The animals were kept in the dark for two hours, that is for the time necessary for absorption, systemic distribution and localization of the drug at the level of the skin. The animals were then irradiated with UV-A light, 9 J/cm^2. Later the animals were sacrificed and the inhibition of the epidermal DNA synthesis was tested; the results obtained are reported in Table VI. The skin on the back, protected from light by a dark paper, was assumed as a control. As a reference 8-MOP, used under the same experimental conditions, was also tested. The significant activity of the alkylangelicins according to the present invention, higher than that of 8-MOP, in inhibiting the epidermal DNA synthesis in mice upon oral administration allows one to consider these compounds as also being effective for oral administration to humans for photochemotherapy of psoriasis and of other skin diseases that are characterized by cellular hyperproliferation.
# Acute toxicity in mice = conditions: mouse, in vivo, po
# skin = assay: Relative skin phototoxicity; conditions: (psr = 100)
# Solubility = assay type: physicochemical
# DNA [12] = conditions: (psr = 100); footnote (c), reference compounds; cited from earlier work
Compound,No. of patients with Excellent result (psoriasis) [patients],No. of patients with Fair result (psoriasis) [patients],No. of patients with Good result (psoriasis) [patients],No. of patients with Poor result (psoriasis) [patients],Stimulation of melamin pigmentation (melamin pigmentation),Carcinogenicity (oral) [1],Carcinogenicity (topical) [1],DNA intercalation property (DNA [2]),Interstrand cross-linking induction in DNA (DNA [2]),K (association constants) of the complexes with DNA (DNA [5]),1/n (frequency of binding sites) (DNA [5]),"1/n (frequency of binding sites), relative (DNA [5])","K (association constants), relative (DNA [5])",Rate constants of the photoreactions with DNA (DNA [6]) [K × 10^-2 × min^-1],"Rate constants of the photoreactions with DNA, relative (DNA [6])",capacity to form interstrand cross-linkages (DNA [7]),"inhibition of DNA synthesis, relative [8]","inhibition of RNA synthesis, relative [9]",inhibition in vivo at 0.01 % (epidermal DNA synthesis [10]) [%],Relative skin phototoxicity (skin),other results
"COc1c2ccoc2cc2oc(=O)ccc12 [5-MOP, 5-methoxypsoralen]",0,1,4,4,"strong, well known",weak,strong,strong,"strong, well known",,,,,,,,,,,,"Monoadduct forming property (DNA [2]): known, strong; Photobinding capacity to DNA (DNA [2]): known, strong; DNA synthesis inhibiting property (DNA synthesis): known, strong; Photosensitizing activity [3]: known, strong; Mutagenicity [4]: known, strong"
"Cc1cc2c(ccc3c(C)cc(=O)oc32)o1 [4,5'-dimethylangelicin]",0,3,1,0,,,,,,1410,0.094,149,252,4.0,363,0,230,172,37.6 ± 4.9,0,Percent inhibition ± standard error of epidermal DNA synthesis (epidermal DNA synthesis [11]): 51.0 ± 8.0%; LD50 (Acute toxicity in mice): 2500 mg/kg
"Cc1oc2ccc3c(C)cc(=O)oc3c2c1CN [4,5'-dimethyl-4'-aminomethylangelicin hydrochloride]",,,,,,,,,,16300,0.255,404,2910,0.8,72,0,25,23.3,,0,"photobinding capacity to DNA (in words) (DNA [6]): lower than that of angelicin; capacity to inhibit the DNA and RNA synthesis (in words) ([8]; Ehrlich ascites tumor cells, versus angelicin): lower than that of angelicin; water solubility (Solubility): water soluble"
"Cc1cc2cc3c(C)cc(=O)oc3c(C)c2o1 [TMP, 4,5',8-trimethylpsoralen]",2,2,2,2,"strong, well known",weak,strong,strong,"strong, well known",,,,,,,,,,,,"Monoadduct forming property (DNA [2]): known, strong; Photobinding capacity to DNA (DNA [2]): known, strong; DNA synthesis inhibiting property (DNA synthesis): known, strong; Photosensitizing activity [3]: known, strong; Mutagenicity [4]: known, strong"
"O=c1ccc2cc3ccoc3cc2o1 [psoralen, reference compound]",,,,,,,,,,400,0.108,171,71.4,3.8,345,,275,166,47.8 ± 7.9,100,capacity to form interstrand cross-linkages (DNA [12]): 100
"Cc1oc2ccc3c(C)cc(=O)oc3c2c1COCCN(C)C [4,5'-dimethyl-4'-N,N-dimethylaminoethoxymethylangelicin]",,,,,,,,,,> 10000,> 0.15,> 230,> 1700,,,0,290,162,29.4 ± 16.2,0,increase of K (affinity towards DNA) (DNA [5]; on introduction of a cationic moiety in addition to the two methyl groups): more than 20 times; photobinding capacity to DNA (in words) (DNA [6]): strongly increased photobinding capacity; water solubility (Solubility): water soluble
